Measurements published in US4371544A, “Pharmaceutical composition containing 1,1,3,5-substituted biuret compound” (Taiho Pharmaceutical Company Limited, priority 1979, dated 1983).
Like-named read-outs stand apart in the source and are kept apart here.

How the values were obtained:
[1] = Acute toxicity (oral, mice, 7 days observation); assay type: in vivo; settings: mouse, in vivo; oral, male ddy mice, 7 days observation; Δ mark; read-out: 50% lethal dose, LD50
Procedure, shortened: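 Overnight-fasted male ddy mice (20-25 g) received compound orally as a suspension in 0.25% carboxymethylcellulose, observed 7 days. Lethal dose (mg/kg) taken from deaths per mice tested; LD50 given where marked.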

[2] = system: ddy strain of male mice; assay: Analgesic activity, acetic acid-induced stretching method; assay type: in vivo, mouse (ddy); settings: Mus musculus; for inhibition in vivo at 100 mg/kg: po, read-out: Analgesic activity, acetic acid-induced stretching method, inhibitory ratio
Procedure, shortened: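 Fasted male mice (20-25 g) received test compound orally, usually 100 mg/kg, as a 0.25% carboxymethylcellulose suspension, then 0.2 ml 0.7% acetic acid i.p. 1 hour later. Stretching was scored and activity given as % inhibition; some values are ED50 (mg/kg).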

[3] = system: Wistar strain of male rats; assay: Anti-inflammatory activity (acute carrageenin-induced inflammatory test, hindpaw); assay type: in vivo, rat (Wistar); settings: Rattus norvegicus, read-out: Anti-inflammatory activity, inflammation inhibitory ratio
Experimental: Next, several tests for determining the pharmacological properties, in that acute toxicity, anti-pyretic activity, analgesic activity and anti-inflammatory activity of the present 1,1,3,5-substituted biuret compounds of the formula (1) were conducted and the test results are shown in Table (2). In the tests, each compounds to be tested was used as a suspension in 0.25% carboxymethylcellulose solution. Methods for testing are explained as follows:
According to the method of acute carrageenin-induced inflammatory test [Folia Pharmacologia Japonica, Vol. 56, pp. 575 (1960)], the Wistar strain of male rats (body weight, 150-180 g) were used as test animals. The rats were fasted overnight, 100 mg/kg body weight of the test compound was administered orally, then 1 hour after the administration, 0.1 ml of 1% carrageenin solution, as the inflammation inducing agent, was injected subcutaneously to the hindpaw of the rat and the volume of the hindpaw was measured at time sequences, Anti-inflammatory activity of the test compound was calculated as inflammation inhibitory ratio (%) at 3 hours after the injection of inflammation inducing agent.

[4] = system: Wistar strain of male rats; assay: Anti-pyretic activity (dry-yeast-induced fever); assay type: in vivo, rat (Wistar); settings: oral (dose not given), up to 4 hours after administration
Procedure, shortened: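 Male Wistar rats (150–180 g), fasted overnight, given 10% dry-yeast suspension subcutaneously (1 ml/100 g). Compound dosed orally as 0.25% CMC suspension 5 h later; body temperature followed, febrile index integrated to 4 h post-dose and expressed as % inhibition.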

[5] = system: ddy strain of male mice; assay: Analgesic activity, Haffner method (morphine threshold dose, clamp); assay type: in vivo, mouse (ddy); settings: Mus musculus; for inhibition in vivo at 100 mg/kg: 100 mg/kg oral, 45 minutes before morphine hydrochloride, read-out: Analgesic activity, Haffner method, inhibitory ratio
Procedure, shortened: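 Fasted male ddy mice weighing 20-25 g were given the test compound orally as a suspension in 0.25% carboxymethylcellulose. After 45 minutes, a threshold dose (1.5-2.5 mg/kg body weight) of morphine hydrochloride was injected subcutaneously, and clamp-induced pain reactions were watched for 1 hour. Analgesic activity was expressed as inhibitory ratio (%) or as ED50.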

[6] = oral, Δ mark, range in parentheses
[7] = 100 mg/kg oral, 3 hours after carrageenin

| Structure (SMILES) | LD50 at 168 h [1] | ED50 [2, 6] | inhibition in vivo at 100 mg/kg [3, 7] | Anti-pyretic activity, inhibitory ratio (febril index) [4] | ED50 [5, 6] | inhibition in vivo at 100 mg/kg [2] | inhibition in vivo at 100 mg/kg ([3]; po, 3 h) | inhibition in vivo at 100 mg/kg [5] | inhibition in vivo at 100 mg/kg ([3]; po, 2 h) |
| --- | --- | --- | --- | --- | --- | --- | --- | --- | --- |
| CNC(=O)N(C)C(=O)N(C)c1ccccc1 [Compound No. 53, 1,3,5-Trimethyl-1-phenylbiuret] | 1350 mg/kg | 68 mg/kg | 76% | 108% | 135 mg/kg | – | – | – | – |
| CCN(C(=O)N(C)C(=O)NC)c1ccccc1 [Compound No. 58, 1-ethyl-3,5-dimethyl-1-phenylbiuret] | 1000 mg/kg | – | – | 137% | – | 75% | 60% | 62.5% | – |
| CCN(C(=O)N(C)C(=O)NC)c1ccc(OC)cc1 [Compound No. 61, 1-Ethyl-1-(4-methoxyphenyl)-3,5-dimethylbiuret] | 1250 mg/kg | – | 52% | 35% | – | 75% | – | 25% | – |
| CCNC(=O)NC(=O)N(C)c1ccccc1 [compound 50, 1-Methyl-1-phenyl-5-ethylbiuret] | 1960 mg/kg | – | 38% | 90% | – | 50% | – | 37.5% | – |
| CCNC(=O)N(C)C(=O)N(C)c1ccccc1 [compound 54, 1,3-Dimethyl-1-phenyl-5-ethylbiuret] | 1350 mg/kg | – | 54% | 58% | – | 37.5% | – | 75% | – |
| CC(C)NC(=O)N(C)C(=O)N(C)c1ccccc1 [compound 56, 1,3-Dimethyl-1-phenyl-5-isopropylbiuret] | 1320 mg/kg | – | – | 65% | – | 25% | 47% | 12.5% | – |
| CCN(C(=O)N(C)C(=O)NC)c1ccccc1Cl [compound 59, 1-Ethyl-1-(2-chlorophenyl)-3,5-dimethylbiuret] | 810 mg/kg | – | – | 64% | – | 37.5% | – | 12.5% | 51% |
